Experimental data reported in US20120101093A1, “SUBSTITUTED IMIDAZO[1,2-A]PYRIDINE DERIVATIVES, PHARMACEUTICAL COMPOSITIONS, AND METHODS OF USE AS BETA-SECRETASE INHIBITORS” (HIGH POINT PHARMACEUTICALS, LLC, priority 2009, published 2012).

Legend:
BACE-1 enzyme = molecular target: T1, BACE-1 enzyme (Homo sapiens, UniProt P56817); assay: BACE Fluorescence Resonance Energy Transfer (FRET) Assay; assay type: biochemical; conditions: pH 4-4.5, 30 min pre-incubation, about 1.5 hours reaction
T1 construct: purchased R & D Systems 931AS
Method in brief: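 Fluorescence (ex 540, em 585 nm) after ~1.5 h room-temperature cleavage of a quenched rhodamine peptide tracks BACE-1 activity. Enzyme and compound first sit 30 min in pH 4-4.5 acetate buffer with CHAPS, Triton X-100, EDTA, 7.5% DMSO. Values given as IC50 or % inhibition.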

[1] = tested on: Aβ1-40 secreted from HEK293 cells stably expressing wildtype human APP695 protein (HEK-APPwt cells); assay: Aβ Cell Based Assay (Aβ1-40 secretion, ELISA); conditions: Homo sapiens, HEK293, 6 h, 6 hours incubation, reduction of Aβ1-40 secretion
Method in brief: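 Cells in DMEM with 2% FBS exposed to ten compound concentrations for 6 h at 37 °C. Secreted Aβ1-40 in supernatant quantified by sandwich ELISA (82E1 capture, TMB, OD450). EC50 from percent inhibition, DAPT defining 100% inhibition, non-linear fit.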

T1 sequence (P56817 46-457 limits assumed): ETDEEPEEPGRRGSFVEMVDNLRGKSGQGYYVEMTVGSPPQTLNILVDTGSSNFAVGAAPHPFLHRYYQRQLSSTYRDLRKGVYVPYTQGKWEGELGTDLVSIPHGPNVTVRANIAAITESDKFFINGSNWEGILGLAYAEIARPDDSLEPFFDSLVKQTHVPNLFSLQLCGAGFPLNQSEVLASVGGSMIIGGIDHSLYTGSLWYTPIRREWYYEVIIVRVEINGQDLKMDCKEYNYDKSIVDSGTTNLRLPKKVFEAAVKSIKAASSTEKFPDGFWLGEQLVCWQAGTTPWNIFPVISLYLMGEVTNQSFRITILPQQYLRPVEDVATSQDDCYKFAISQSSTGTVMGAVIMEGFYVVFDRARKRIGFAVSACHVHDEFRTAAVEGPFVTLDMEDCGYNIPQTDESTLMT

Row | SMILES | IC50 (BACE-1 enzyme) | EC50 [1]
1 | COc1c(-c2ccc3[nH]c(NC(=O)c4cn5c(C)cccc5n4)nc3c2)cccc1C(F)(F)F [Example 110, 5-Methyl-imidazo[1,2-a]pyridine-2-carboxylic acid [5-(2-methoxy-3-trifluoromethyl-phenyl)-1H-benzoimidazol-2-yl]-amide] | 0.4 µM | 0.75 µM
2 | O=C(Nc1nc2cc(-c3cccc(C(F)(F)F)c3)ccc2[nH]1)c1cn2cc(F)ccc2n1 [Example 112, 6-Fluoro-imidazo[1,2-a]pyridine-2-carboxylic acid [5-(3-trifluoromethyl-phenyl)-1H-benzoimidazol-2-yl]-amide] | 0.43 µM | 1.94 µM
3 | O=C(Nc1nc2cc(-c3cccc(C(F)(F)F)c3)ccc2[nH]1)c1cn2ccccc2n1 [Example 115, Imidazo[1,2-a]pyridine-2-carboxylic acid [5-(3-trifluoromethyl-phenyl)-1H-benzoimidazol-2-yl]-amide] | 0.37 µM | 1.43 µM
4 | O=C(Nc1nc2cc(-c3cccc(OC(F)(F)F)c3)ccc2[nH]1)c1cn2ccccc2n1 [Example 117, Imidazo[1,2-a]pyridine-2-carboxylic acid [5-(3-trifluoromethoxy-phenyl)-1H-benzoimidazol-2-yl]-amide] | 0.54 µM | 3.67 µM
5 | Cc1cccc2nc(C(=O)Nc3nc4cc(C5CCC(C)CC5)ccc4[nH]3)cn12 (stereo not drawn) [Example 119, 5-Methyl-imidazo[1,2-a]pyridine-2-carboxylic acid [5-(4-methyl-cyclohexyl)-1H-benzoimidazol-2-yl]-amide] | 0.27 µM | 1.82 µM
6 | CN(C)c1cccc2nc(C(=O)Nc3nc4cc(-c5cccc(C(F)(F)F)c5)ccc4[nH]3)cn12 [Example 121, 5-Dimethylamino-imidazo[1,2-a]pyridine-2-carboxylic acid [5-(3-trifluoromethyl-phenyl)-1H-benzoimidazol-2-yl]-amide] | 0.67 µM | 0.37 µM
7 | COCCNc1cccc2nc(C(=O)Nc3nc4cc(-c5cccc(C(F)(F)F)c5)ccc4[nH]3)cn12 [Example 122, 5-(2-Methoxy-ethylamino)-imidazo[1,2-a]pyridine-2-carboxylic acid [5-(3-trifluoromethyl-phenyl)-1H-benzoimidazol-2-yl]-amide] | 0.54 µM | 1.5 µM
8 | O=C(Nc1nc2cc(-c3cccc(C(F)(F)F)c3)ccc2[nH]1)c1cn2c(N3CCOCC3)cccc2n1 [Example 123, 5-Morpholin-4-yl-imidazo[1,2-a]pyridine-2-carboxylic acid [5-(3-trifluoromethyl-phenyl)-1H-benzoimidazol-2-yl]-amide] | 2.11 µM | 1.11 µM
9 | COc1ccc(-c2ccc3[nH]c(NC(=O)c4cn5c(N6CCN(C)CC6)cccc5n4)nc3c2)cc1C(F)(F)F [Example 124, 5-(4-Methyl-piperazin-1-yl)-imidazo[1,2-a]pyridine-2-carboxylic acid [5-(4-methoxy-3-trifluoromethyl-phenyl)-1H-benzoimidazol-2-yl]-amide] | 0.55 µM | 3.13 µM
10 | COc1cc(F)cn2cc(C(=O)Nc3nc4cc(-c5cc(F)cc(Cl)c5)ccc4[nH]3)nc12 [Example 126, 6-Fluoro-8-methoxy-imidazo[1,2-a]pyridine-2-carboxylic acid [5-(3-chloro-5-fluoro-phenyl)-1H-benzoimidazol-2-yl]-amide] | 0.22 µM | 1.58 µM
11 | COc1cc(F)cn2cc(C(=O)Nc3nc4cc(-c5cccc(C(F)(F)F)c5)ccc4[nH]3)nc12 [Example 127, 6-Fluoro-8-methoxy-imidazo[1,2-a]pyridine-2-carboxylic acid [5-(3-trifluoromethyl-phenyl)-1H-benzoimidazol-2-yl]-amide] | 0.45 µM | 1.73 µM
12 | O=C(Nc1nc2cc(-c3cccc(C(F)(F)F)c3)ccc2[nH]1)c1cn2c(CO)cccc2n1 [Example 161, 5-Hydroxymethyl-imidazo[1,2-a]pyridine-2-carboxylic acid [5-(3-trifluoromethyl-phenyl)-1H-benzoimidazol-2-yl]-amide] | 0.52 µM | 2.87 µM

Continued, in another order:

Row | IC50 (BACE-1 enzyme) | SMILES | EC50 [1]
13 | 0.23 µM | COCCNCc1cccc2nc(C(=O)Nc3nc4cc(-c5cccc(C(F)(F)F)c5)ccc4[nH]3)cn12 [Example 162, 5-[(2-Methoxy-ethylamino)-methyl]-imidazo[1,2-a]pyridine-2-carboxylic acid [5-(3-trifluoromethyl-phenyl)-1H-benzoimidazol-2-yl]-amide] | 0.98 µM
14 | 0.36 µM | CN(C)Cc1cccc2nc(C(=O)Nc3nc4cc(-c5cccc(C(F)(F)F)c5)ccc4[nH]3)cn12 [Example 163, 5-Dimethylaminomethyl-imidazo[1,2-a]pyridine-2-carboxylic acid [5-(3-trifluoromethyl-phenyl)-1H-benzoimidazol-2-yl]-amide] | 1.11 µM
15 | 0.42 µM | O=C(Nc1nc2cc(-c3cccc(C(F)(F)F)c3)ccc2[nH]1)c1cn2c(CN3CCOCC3)cccc2n1 [Example 165, 5-Morpholin-4-ylmethyl-imidazo[1,2-a]pyridine-2-carboxylic acid [5-(3-trifluoromethyl-phenyl)-1H-benzoimidazol-2-yl]-amide] | 1.88 µM
16 | 0.77 µM | O=C(Nc1nc2cc(-c3cccc(C(F)(F)F)c3)ccc2[nH]1)c1cn2c(CN3CCC(O)CC3)cccc2n1 [Example 167, 5-(4-Hydroxy-piperidin-1-ylmethyl)-imidazo[1,2-a]pyridine-2-carboxylic acid [5-(3-trifluoromethyl-phenyl)-1H-benzoimidazol-2-yl]-amide] | 1.54 µM
17 | 0.42 µM | O=C(Nc1nc2cc(-c3cccc(C(F)(F)F)c3)ccc2[nH]1)c1cn2c(CNCCN3CCOCC3)cccc2n1 [Example 169, 5-[(2-Morpholin-4-yl-ethylamino)-methyl]-imidazo[1,2-a]pyridine-2-carboxylic acid [5-(3-trifluoromethyl-phenyl)-1H-benzoimidazol-2-yl]-amide] | 5.23 µM
18 | 0.47 µM | CNCc1cccc2nc(C(=O)Nc3nc4cc(-c5cccc(C(F)(F)F)c5)ccc4[nH]3)cn12 [Example 170, 5-Methylaminomethyl-imidazo[1,2-a]pyridine-2-carboxylic acid [5-(3-trifluoromethyl-phenyl)-1H-benzoimidazol-2-yl]-amide] | 2.48 µM
19 | 0.71 µM | O=C(Nc1nc2cc(-c3cccc(C(F)(F)F)c3)ccc2[nH]1)c1cn2c(CNCCCO)cccc2n1 [Example 171, 5-[(3-Hydroxy-propylamino)-methyl]-imidazo[1,2-a]pyridine-2-carboxylic acid [5-(3-trifluoromethyl-phenyl)-1H-benzoimidazol-2-yl]-amide] | 4.26 µM
20 | 0.31 µM | CC(C)(C)NCc1cccc2nc(C(=O)Nc3nc4cc(-c5cccc(C(F)(F)F)c5)ccc4[nH]3)cn12 [Example 172, 5-(tert-Butylamino-methyl)-imidazo[1,2-a]pyridine-2-carboxylic acid [5-(3-trifluoromethyl-phenyl)-1H-benzoimidazol-2-yl]-amide] | 1.92 µM
21 | 0.93 µM | COCCCNCc1cccc2nc(C(=O)Nc3nc4cc(-c5cccc(C(F)(F)F)c5)ccc4[nH]3)cn12 [Example 174, 5-[(3-Methoxy-propylamino)-methyl]-imidazo[1,2-a]pyridine-2-carboxylic acid [5-(3-trifluoromethyl-phenyl)-1H-benzoimidazol-2-yl]-amide] | 4.4 µM
22 | 0.37 µM | CC(C)CNCc1ccc2nc(C(=O)Nc3nc4cc(-c5cccc(C(F)(F)F)c5)ccc4[nH]3)cn2c1 [Example 176, 6-(Isobutylamino-methyl)-imidazo[1,2-a]pyridine-2-carboxylic acid [5-(3-trifluoromethyl-phenyl)-1H-benzoimidazol-2-yl]-amide] | 3.91 µM
23 | 0.3 µM | O=C(Nc1nc2cc(-c3cccc(C(F)(F)F)c3)ccc2[nH]1)c1cn2cc(CO)ccc2n1 [Example 177, 6-Hydroxymethyl-imidazo[1,2-a]pyridine-2-carboxylic acid [5-(3-trifluoromethyl-phenyl)-1H-benzoimidazol-2-yl]-amide] | 1.03 µM
24 | 0.55 µM | O=C(Nc1nc2cc(-c3cccc(C(F)(F)F)c3)ccc2[nH]1)c1cn2cc(CN3CCCC3)ccc2n1 [Example 179, 6-Pyrrolidin-1-ylmethyl-imidazo[1,2-a]pyridine-2-carboxylic acid [5-(3-trifluoromethyl-phenyl)-1H-benzoimidazol-2-yl]-amide] | 4.74 µM
25 | 0.46 µM | O=C(Nc1nc2cc(-c3cccc(C(F)(F)F)c3)ccc2[nH]1)c1cn2cc(CN3CCOCC3)ccc2n1 [Example 182, 6-Morpholin-4-ylmethyl-imidazo[1,2-a]pyridine-2-carboxylic acid [5-(3-trifluoromethyl-phenyl)-1H-benzoimidazol-2-yl]-amide] | 0.54 µM
26 | 0.83 µM | CC(C)CN(C)Cc1ccc2nc(C(=O)Nc3nc4cc(-c5cccc(C(F)(F)F)c5)ccc4[nH]3)cn2c1 [Example 184, 6-[(Isobutyl-methyl-amino)-methyl]-imidazo[1,2-a]pyridine-2-carboxylic acid [5-(3-trifluoromethyl-phenyl)-1H-benzoimidazol-2-yl]-amide] | 4.32 µM
27 | 0.62 µM | CN(Cc1ccccc1)Cc1ccc2nc(C(=O)Nc3nc4cc(-c5cccc(C(F)(F)F)c5)ccc4[nH]3)cn2c1 [Example 185, 6-[(Benzyl-methyl-amino)-methyl]-imidazo[1,2-a]pyridine-2-carboxylic acid [5-(3-trifluoromethyl-phenyl)-1H-benzoimidazol-2-yl]-amide] | 1.93 µM
